Read-outs that look alike come from different tables or passages of the source.
Experiments:
[1] = tested on: naphthalene-induced airway epithelial damage; conditions: 5 mg/kg ip
[2] = tested on: peripheral blood mononuclear cells (PBMC)
HDAC-3 = HDAC-3 (Homo sapiens, UniProt O15379)
HDAC8 [3] = biological target: T1, HDAC8 (Homo sapiens, UniProt Q9BY41); test: biochemical
Target sequence in this assay (Q9BY41 whole entry, species assumed): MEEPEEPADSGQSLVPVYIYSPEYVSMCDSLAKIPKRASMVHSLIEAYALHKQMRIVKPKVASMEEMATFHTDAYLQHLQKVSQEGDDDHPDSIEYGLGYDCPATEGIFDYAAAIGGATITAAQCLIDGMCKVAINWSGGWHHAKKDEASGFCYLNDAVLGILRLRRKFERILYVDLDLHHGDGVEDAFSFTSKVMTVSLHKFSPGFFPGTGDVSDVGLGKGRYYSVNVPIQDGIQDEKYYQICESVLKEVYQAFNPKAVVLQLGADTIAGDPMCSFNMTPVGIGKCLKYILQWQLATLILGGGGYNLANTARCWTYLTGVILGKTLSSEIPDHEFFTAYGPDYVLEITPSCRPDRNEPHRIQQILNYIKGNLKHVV

HDAC-7 = HDAC-7 (Homo sapiens, UniProt Q8WUI4); test: Binding to metal dependent histone deacetylase enzymes (epigenetic assay services)
Sequence of HDAC-7 (Q8WUI4 whole entry): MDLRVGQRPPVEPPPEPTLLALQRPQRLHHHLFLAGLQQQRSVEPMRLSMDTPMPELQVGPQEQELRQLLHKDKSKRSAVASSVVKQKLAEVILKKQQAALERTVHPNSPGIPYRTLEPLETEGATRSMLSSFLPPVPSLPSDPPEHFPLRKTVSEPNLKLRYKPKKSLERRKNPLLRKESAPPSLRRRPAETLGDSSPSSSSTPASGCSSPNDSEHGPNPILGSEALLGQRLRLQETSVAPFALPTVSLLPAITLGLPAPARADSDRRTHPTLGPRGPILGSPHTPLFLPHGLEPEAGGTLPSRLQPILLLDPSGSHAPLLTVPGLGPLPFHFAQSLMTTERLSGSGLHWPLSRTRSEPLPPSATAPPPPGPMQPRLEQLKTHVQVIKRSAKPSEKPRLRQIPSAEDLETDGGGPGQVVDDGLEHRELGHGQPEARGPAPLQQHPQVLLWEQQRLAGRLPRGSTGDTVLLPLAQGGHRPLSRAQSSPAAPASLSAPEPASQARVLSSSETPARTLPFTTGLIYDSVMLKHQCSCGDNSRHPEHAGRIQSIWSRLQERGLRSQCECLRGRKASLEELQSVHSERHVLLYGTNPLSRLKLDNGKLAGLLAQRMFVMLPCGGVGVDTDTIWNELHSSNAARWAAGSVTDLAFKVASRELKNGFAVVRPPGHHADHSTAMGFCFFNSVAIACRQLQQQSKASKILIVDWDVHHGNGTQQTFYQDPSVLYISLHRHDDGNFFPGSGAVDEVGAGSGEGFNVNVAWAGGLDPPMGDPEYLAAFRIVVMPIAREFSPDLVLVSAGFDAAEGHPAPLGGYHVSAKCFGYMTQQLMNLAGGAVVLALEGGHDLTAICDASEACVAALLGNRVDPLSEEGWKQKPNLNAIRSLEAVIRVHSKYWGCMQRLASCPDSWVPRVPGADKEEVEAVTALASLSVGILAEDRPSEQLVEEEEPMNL

[4] = tested on: ovalbumin (OVA)-induced AAD
H9c2 cells = conditions: pre-treated with 10, 15 and 30 μM for 24 hours prior to 1 μM doxorubicin
HDAC8 [5] = biological target: T1, HDAC8; conditions: FIG. 2
Target sequence in this assay (Q9BY41 whole entry): as the sequence (Q9BY41 whole entry, species assumed) above

[6] = more subtle than Trichostatin A
[7] = 5 mg/kg intraperitoneally following each OVA nebulization, compared to ovalbumin-sensitized mice

Sequence of HDAC-3 (O15379 whole entry, species assumed): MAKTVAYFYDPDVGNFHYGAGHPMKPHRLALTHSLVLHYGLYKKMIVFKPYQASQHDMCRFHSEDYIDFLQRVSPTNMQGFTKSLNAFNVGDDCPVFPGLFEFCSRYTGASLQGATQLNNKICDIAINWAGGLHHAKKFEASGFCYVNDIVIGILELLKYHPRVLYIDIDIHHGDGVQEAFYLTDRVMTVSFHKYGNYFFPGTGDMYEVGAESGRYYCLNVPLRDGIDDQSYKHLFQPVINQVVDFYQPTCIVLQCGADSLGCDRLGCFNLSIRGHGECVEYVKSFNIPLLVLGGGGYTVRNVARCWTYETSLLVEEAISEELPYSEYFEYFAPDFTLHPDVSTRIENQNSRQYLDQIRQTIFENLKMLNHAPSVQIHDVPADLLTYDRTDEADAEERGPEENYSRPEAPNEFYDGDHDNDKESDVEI
Sequence of HDAC-3 (Q9Y618 395-489 partner limits assumed, species assumed): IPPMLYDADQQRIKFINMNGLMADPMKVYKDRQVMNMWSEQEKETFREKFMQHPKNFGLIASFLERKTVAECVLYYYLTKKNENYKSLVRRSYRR

C[S@@+]([O-])CCCCN=C=S [LSF, (R)-1-Isothiocyanato-4-(methylsulfinyl)butane]
epithelial denudation ([1]; 24 hours post-naphthalene, level analogous to dexamethasone 1 mg/kg): reduces | lamina reticularis thickness ([1]; 72 hours post-naphthalene, efficacy similar to dexamethasone): reduces | reduction in chemokines and cytokines relative to Trichostatin A (TSA), SAHA and sodium butyrate (NaB) ([2]; 1 μM TSA, 10 μM SAHA, 10 mM NaB, 15 or 30 μM LSF): more pronounced effects | levels of TNF-α, IL-1β, IL-6, IL-8, MIP-1β and IP-10 in supernatants ([2]; 15 μM LSF or 30 μM LSF, FIG. 3): reduction | HILLSLOPE (HDAC-3; HDAC-3): −0.20 | binding to HDAC 3 (in words) (HDAC-3; [6]): specific binding | NES (Horse PBMC; ENCODE TF target set GM12878RAD21 (r27)): −3.95 | NES (Horse PBMC; ENCODE TF target set GM12878_RAD21 (r28)): −3.79 | NES (Horse PBMC; ENCODE TF target set GM12878_YY1): 3.41 | NES (Horse PBMC; ENCODE TF target set GM12878_ZBTB33 (r17)): 3.05 | NES (Horse PBMC; ENCODE TF target set GM12878_ZBTB33 (r21)): 2.89 | NES (Horse PBMC; ENCODE TF target set H1HESC_POL2 (r12)): 3.34 | NES (Horse PBMC; ENCODE TF target set H1HESC_POL2 (r13)): 3.33 | NES (Horse PBMC; ENCODE TF target set H1NEURONS_NRSF): 2.84 | NES (Horse PBMC; ENCODE TF target set HEPG2_GRP20_FORSKLN): 3.01 | NES (Horse PBMC; ENCODE TF target set HEPG2_ZBTB33 (r11)): 3.35 | NES (Horse PBMC; ENCODE TF target set HEPG2_ZBTB33 (r14)): 3.23 | NES (Horse PBMC; ENCODE TF target set K562_KAP1): 3.04 | NES (Horse PBMC; ENCODE TF target set K562_STAT1_IFNA6H): −4.54 | NES (Horse PBMC; ENCODE TF target set K562_STAT2_IFNA6H): −4.45 | NES (Horse PBMC; ENCODE TF target set K562_TR4UCD): 3.13 | NES (Horse PBMC; ENCODE TF target set K562_ZBTB33): 2.78 | NES (Horse PBMC; ENCODE TF target set MCF10AES_STAT3): −3.75 | NES (Horse PBMC; ENCODE TF target set SHSY5Y_GATA3): 3.13 | NES (Horse PBMC; ENCODE TF target set SKNMC_POL2): 2.91 | NES (Horse PBMC; ENCODE TF target set U2OS_SETDB1): 2.83 | expression of CD markers, immunoglobulin containing genes and interleukins (Horse PBMC; LSF vs control): strongly down-regulated | pathways related to interferon signalling, STAT1/2 targets and autoimmune/auto-inflammatory diseases (Horse PBMC; LSF vs control): strongly downregulated | NES (Horse PBMC; MSigDB gene set ATGTTAA, MIR-302C): 4.19 | NES (Horse PBMC; MSigDB gene set CHEN HOXA5 TARGETS 9HR UP): 4.3 | NES (Horse PBMC; MSigDB gene set CTTGTAT, MIR-381): 4.1 | NES (Horse PBMC; MSigDB gene set FULCHER INFLAMMATORY RESPONSE LECTIN VS LPS DN): −5.59 | NES (Horse PBMC; MSigDB gene set GABRIELY MIR21 TARGETS): 3.8 | NES (Horse PBMC; MSigDB gene set GCM DFFA): 4.6 | NES (Horse PBMC; MSigDB gene set GCM MLL): 4.08 | NES (Horse PBMC; MSigDB gene set GCM MYST2): 4.99 | NES (Horse PBMC; MSigDB gene set GCM RAB10): 3.8 | NES (Horse PBMC; MSigDB gene set GCM SUFU): 4.3 | NES (Horse PBMC; MSigDB gene set GCM UBE2N): 4.65 | NES (Horse PBMC; MSigDB gene set GCM ZNF198): 4.95 | NES (Horse PBMC; MSigDB gene set GSE10239 NAIVE VS MEMORY CD8 TCELL UP): 4.2 | NES (Horse PBMC; MSigDB gene set GSE10325 CD4 TCELL VS MYELOID DN): −6.35 | NES (Horse PBMC; MSigDB gene set GSE10325 LUPUS BCELL VS LUPUS MYELOID DN): −6.47 | NES (Horse PBMC; MSigDB gene set GSE10325 LUPUS CD4 TCELL VS LUPUS MYELOID DN): −7.15 | NES (Horse PBMC; MSigDB gene set GSE11057 CD4 EFF MEM VS PBMC DN): −5.63 | NES (Horse PBMC; MSigDB gene set GSE13485 CTRL VS DAY3 YF17D VACCINE PBMC DN): −5.66 | NES (Horse PBMC; MSigDB gene set GSE13485 CTRL VS DAY7 YF17D VACCINE PBMC DN): −6.96 | NES (Horse PBMC; MSigDB gene set GSE13485 DAY3 VS DAY7 YF17D VACCINE PBMC DN): −5.63 | NES (Horse PBMC; MSigDB gene set GSE13485 DAY7 VS DAY21 YF17D VACCINE PBMC UP): −5.61 | NES (Horse PBMC; MSigDB gene set GSE22866 NAIVE CD4 TCELL VS MONOCYTE DN): −5.6 | NES (Horse PBMC; MSigDB gene set GSE24634 IL4 VS CTRL TREATED NAIVE CD4 TCELL DAY5 UP): −5.8 | NES (Horse PBMC; MSigDB gene set GSE24634 TREG VS TCONV POST DAY10 IL4 CONVERSION DN): −5.97 | NES (Horse PBMC; MSigDB gene set GSE29617 CTRL VS DAY3 TIV FLU VACCINE PBMC 2008 UP): 4.12 | NES (Horse PBMC; MSigDB gene set GSE29618 BCELL VS MDC DAY7 FLU VACCINE DN): −5.93 | NES (Horse PBMC; MSigDB gene set HAMAI APOPTOSIS VIA TRAIL UP): 5.42 | NES (Horse PBMC; MSigDB gene set MCLACHLAN DENTAL CARIES UP): −5.67 | NES (Horse PBMC; MSigDB gene set MEISSNER BRAIN HCP WITH H3K4ME3 AND H3K27ME3): −5.6 | NES (Horse PBMC; MSigDB gene set MILI PSEUDOPODIA HAPTOTAXIS UP): 4.81 | NES (Horse PBMC; MSigDB gene set MODULE 45): −5.9 | NES (Horse PBMC; MSigDB gene set MODULE 46): −6.22 | NES (Horse PBMC; MSigDB gene set MODULE 75): −5.9 | NES (Horse PBMC; MSigDB gene set MODULE 84): −7.87 | NES (Horse PBMC; MSigDB gene set MRNA METABOLIC PROCESS): 4.19 | NES (Horse PBMC; MSigDB gene set REACTOME GENERIC TRANSCRIPTION PATHWAY): 4.19 | NES (Horse PBMC; MSigDB gene set RNA PROCESSING): 4.02 | NES (Horse PBMC; MSigDB gene set SHEN SMARCA2 TARGETS UP): 5.39 | NES (Horse PBMC; MSigDB gene set V$NFMUE1 Q6): 3.98 | NES (Horse PBMC; MSigDB gene set WALLACE PROSTATE CANCER RACE UP): −5.66 | NES (Horse PBMC; Reactome gene set ACTIVATION OF KAINATE RECEPTORS UPON GLUTAMATE BINDING): −2.56 | NES (Horse PBMC; Reactome gene set ANTIGEN PROCESSING UBIQUITINATION PROTEASOME DEGRADATION): 2.7 | NES (Horse PBMC; Reactome gene set ASSOCIATION OF TRIC CCT WITH TARGET PROTEINS DURING BIOSYNTHESIS): 2.62 | NES (Horse PBMC; Reactome gene set CLASS A1 RHODOPSIN LIKE RECEPTORS): −2.68 | NES (Horse PBMC; Reactome gene set CLEAVAGE OF GROWING TRANSCRIPT IN THE TERMINATION REGION): 3.33 | NES (Horse PBMC; Reactome gene set CYTOKINE SIGNALLING IN IMMUNE SYSTEM): −2.84 | NES (Horse PBMC; Reactome gene set DOWNSTREAM SIGNALING EVENTS OF B CELL RECEPTOR BCR): 3.12 | NES (Horse PBMC; Reactome gene set G ALPHA1213 SIGNALLING EVENTS): −2.54 | NES (Horse PBMC; Reactome gene set G ALPHA I SIGNALLING EVENTS): −2.41 | NES (Horse PBMC; Reactome gene set G ALPHA SIGNALLING EVENTS): −2.82 | NES (Horse PBMC; Reactome gene set GABA RECEPTOR ACTIVATION): −2.39 | NES (Horse PBMC; Reactome gene set GENERIC TRANSCRIPTION PATHWAY): 4.23 | NES (Horse PBMC; Reactome gene set GPCR DOWNSTREAM SIGNALING): −3.63 | NES (Horse PBMC; Reactome gene set GPCR LIGAND BINDING): −2.67 | NES (Horse PBMC; Reactome gene set HIV LIFE CYCLE): 2.41 | NES (Horse PBMC; Reactome gene set IMMUNOREGULATORY INTERACTIONS BETWEEN A LYMPHOID AND A NON LYMPHOID CELL): −3.37 | NES (Horse PBMC; Reactome gene set INTERFERON ALPHA BETA SIGNALING): −4 | NES (Horse PBMC; Reactome gene set INTERFERON GAMMA SIGNALING): −3.9 | NES (Horse PBMC; Reactome gene set INTERFERON SIGNALING): −3.18 | NES (Horse PBMC; Reactome gene set LATE PHASE OF HIV LIFE CYCLE): 2.44 | NES (Horse PBMC; Reactome gene set MHC CLASS II ANTIGEN PRESENTATION): −2.47 | NES (Horse PBMC; Reactome gene set MRNA 3 END PROCESSING): 3.5 | NES (Horse PBMC; Reactome gene set MRNA PROCESSING): 3.68 | NES (Horse PBMC; Reactome gene set MRNA SPLICING): 3.09 | NES (Horse PBMC; Reactome gene set OPIOID SIGNALLING): −2.55 | NES (Horse PBMC; Reactome gene set PEPTIDE CHAIN ELONGATION): −2.43 | NES (Horse PBMC; Reactome gene set PI3K EVENTS IN ERBB2 SIGNALING): 2.49 | NES (Horse PBMC; Reactome gene set PI3K EVENTS IN ERBB4 SIGNALING): 2.52 | NES (Horse PBMC; Reactome gene set PIP3 ACTIVATES AKT SIGNALING): 2.48 | NES (Horse PBMC; Reactome gene set PROCESSING OF CAPPED INTRON CONTAINING PRE MRNA): 3.61 | NES (Horse PBMC; Reactome gene set RECRUITMENT OF MITOTIC CENTROSOME PROTEINS AND COMPLEXES): 2.55 | NES (Horse PBMC; Reactome gene set REGULATION OF MRNA STABILITY BY PROTEINS THAT BIND AU RICH ELEMENTS): 2.6 | NES (Horse PBMC; Reactome gene set REGULATION OF ORNITHINE DECARBOXYLASE ODC): 2.45 | NES (Horse PBMC; Reactome gene set RESPIRATORY ELECTRON TRANSPORT ATP SYNTHESIS BY CHEMIOSMOTIC COUPLING AND HEAT PRODUCTION BY UNCOULPLING PROTEINS): −2.69 | NES (Horse PBMC; Reactome gene set RNA POL II TRANSCRIPTION): 3.32 | NES (Horse PBMC; Reactome gene set SIGNALING BY GPCR): −3.35 | NES (Horse PBMC; Reactome gene set SIGNALING BY RHO GTPASES): −2.87 | NES (Horse PBMC; Reactome gene set TCA CYCLE AND RESPIRATORY ELECTRON TRANSPORT): −2.8 | NES (Horse PBMC; Reactome gene set TRANSCRIPTION): 3.25 | NES (Horse PBMC; Reactome gene set TRANSPORT OF MATURE TRANSCRIPT TO CYTOPLASM): 3.02 | IC50 (HDAC8 [3]): 82.7 µM | HILLSLOPE (HDAC-7; HDAC-7): −0.41 | IC50 (HDAC-7; HDAC-7): 5810 µM | binding to HDAC 7 (in words) (HDAC-7; [6]): specific binding | airway wall thickness [4, 7]: reductions | goblet cell hyperplasia [4, 7]: reductions | inflammation [4, 7]: reductions | Annexin V staining (apoptosis) in lung tissue ([4]; OVA-LSF 5 mg/kg, strong staining in OVA-VEH): Weak | doxorubicin-induced accumulation of γH2AX foci (H9c2 cells): attenuates | inhibition of the enzymatic activity of HDAC8 (HDAC8 [5]): inhibits | specificity of inhibition, HDAC8 compared to HDAC1 (HDAC8 [5]; HDAC1 and HDAC8 inhibitor Screening Assay Kits): specificity of L-sulforaphane for HDAC8 compared to HDAC1
